Patent publication US4229452A, “Treatment of inflammatory disorders with 4-trifluoromethylimidazo[1,2-a]quinoxaline” (Westwood Pharmaceuticals, Inc., priority 1979, dated 1980)

What was measured:
[1] = side-effects noted in the carrageenin-induced paw edema test; type: in vivo; settings: rat; for Side-Effects Noted: rats died: 128 mg/kg po
Protocol: (§1) Male Charles River Rats weighing 145 to 180 g. were employed in the study. Food was withheld for 18 hours before the start of the test, while water was withheld only during the test. Experimental drugs with the desired dose in 3 ml. distilled water (Tween 80)/100 g. body weight were administered orally as suspensions by stomach tube. Control animals, those not receiving drugs, were given the same volume of vehicle by the same route of administration. To induce inflammation, the rear paw was injected into the plantar surface with 0.1 ml. of a 1% carrageenin solution in 0.9% saline. The right paw was also injected with 0.1 ml. of a 0.9% saline solution. At the time of sacrifice, the animals were killed by chloroform. The hind paws were rapidly amputated at tarsocrural joint and weighed on an analytical balance. In all cases the drugs were administered one hour before the paw injections and the sacrifice was performed three hours after the carrageenin injection. The difference in weight (g/100 b.w.) between the carrageenin and the saline injected paws was recorded as the degree of edema.

[2] = test system: carrageenin-induced paw edema; test: carrageenin-induced paw edema test in the rat; type: in vivo, rat (Male Charles River); settings: for inhibition in vivo at 64 mg/kg: 64 mg/kg po; for inhibition in vivo at 128 mg/kg: 128 mg/kg po; for ED30: calculated from the dose-response line; for inhibition in vivo at 8 mg/kg: 8 mg/kg po; for inhibition in vivo at 16 mg/kg: 16 mg/kg po; for inhibition in vivo at 32 mg/kg: 32 mg/kg po; for reduction of carrageenin-induced edema / anti-edema activity: result in words
Protocol: Compounds of the present invention were screened in the carrageenin-inducedpaw edema test in the rat. Acetylsalicylic acid was included in the study for reference comparison.
The method employed was the carrageenin edema test [Winter, C. A., Risley, E. A. and Nuss, G. W., Proc. Soc. exp. Biol. Med. 111:544(1962) and Halperin, B. N. and Briot, M., Arch Int. Pharmacody N. 82:247(1950)].
as §1
A comparison of the effectiveness of the test compounds and the standard reference agent, acetylsalicylic acid, in inhibiting edema resulting from the injection of carrageenin is recorded in the following Table XI.
It should be noted that ED30 refers to that dose which inhibits carrageenin-induced paw edema in 30% of the animals in the test group.

With CCCCCc1nc2ccccc2n2ccnc12 [Compound 114] the “Side-Effects Noted” value ([1]; po) was “NONE”, the inhibition in vivo at 64 mg/kg [2] was 5% and the inhibition in vivo at 128 mg/kg [2] was 23%. For the same molecule, the ED30 ([2]; po) was greater than 128 mg/kg.
With CCCCCCCCCCCCCCCc1nc2ccccc2n2ccnc12 [Compound 119] the “Side-Effects Noted” value ([1]; po) was “NONE”, the inhibition in vivo at 128 mg/kg [2] was 9% and the ED30 ([2]; po) was greater than 128 mg/kg.
In the case of CCCCCCc1nc2ccccc2n2ccnc12 [Compound 115], the “Side-Effects Noted” value ([1]; po) is reported as “NONE”, the inhibition in vivo at 64 mg/kg [2] is reported as 0% and the inhibition in vivo at 128 mg/kg [2] is reported as 27%. It also gave an ED30 ([2]; po) of roughly 128 mg/kg.
For Cc1nc2ccccc2n2ccnc12 [Compound 110], the “Side-Effects Noted: rats died” value [1] was 1/6, the inhibition in vivo at 8 mg/kg [2] was 12% and the inhibition in vivo at 16 mg/kg [2] was 28%. The inhibition in vivo at 32 mg/kg [2] was 33%, the inhibition in vivo at 64 mg/kg [2] was 29% and the inhibition in vivo at 128 mg/kg [2] was 42%. The ED30 ([2]; po) was 40 mg/kg and the “reduction of carrageenin-induced edema / anti-edema activity” value ([2]; po) was “significant reductions of carrageenin-induced edema without attendant side effects”.
Work on CC(C)Cc1nc2ccccc2n2ccnc12 yielded an inhibition in vivo at 16 mg/kg [2] of 0%, an inhibition in vivo at 32 mg/kg [2] of 25% and an inhibition in vivo at 64 mg/kg [2] of 23%. It also gave an inhibition in vivo at 128 mg/kg [2] of 36% and an ED30 ([2]; po) of roughly 70 mg/kg.
For C(=Cc1nc2ccccc2n2ccnc12)c1ccccc1, the “Side-Effects Noted” value ([1]; po) was “NONE”, the inhibition in vivo at 128 mg/kg [2] was 0% and the ED30 ([2]; po) was greater than 128 mg/kg.
In the case of c1ccc2c(c1)nc(C1CCCCC1)c1nccn12, the “Side-Effects Noted” value ([1]; po) is reported as “NONE”, the inhibition in vivo at 64 mg/kg [2] is reported as 0% and the inhibition in vivo at 128 mg/kg [2] is reported as 60%. For the same molecule, the ED30 ([2]; po) was roughly 100 mg/kg.
COCc1nc2ccccc2n2ccnc12 [Compound 125] showed an inhibition in vivo at 64 mg/kg [2] of 1%, an inhibition in vivo at 128 mg/kg [2] of 32% and an ED30 ([2]; po) of roughly 128 mg/kg.
With CCCCCCCCCc1nc2ccccc2n2ccnc12 [Compound 118] the “Side-Effects Noted” value ([1]; po) was “NONE”, the inhibition in vivo at 128 mg/kg [2] was 0% and the ED30 ([2]; po) was greater than 128 mg/kg.
With FC(F)(F)c1nc2ccccc2n2ccnc12 [Compound 122, 4-trifluoromethylimidazo[1,2-a]quinoxaline] the “dose associated with side effects, as multiple of ED30” value ([1]; po) was “does not show side effects at several multiples of its ED30”, the “Side-Effects Noted” value ([1]; po, listed as CF3) was “NONE and did not produce any obvious untoward side effects” and the “Side-Effects Noted” value ([1]; po, listed as trifluoromethyl analog) was “did not produce any side effects even at a dose of 128 mg/kg”. For the same molecule, the therapeutic index ([1]; po, result in words) was “very good therapeutic index”, the “toxicity relative to the non-fluorinated analog” value ([1]; po, result in words) was “less toxic” and the inhibition in vivo at 8 mg/kg [2] was 8%. It also gave an inhibition in vivo at 16 mg/kg [2] of 29%, an inhibition in vivo at 32 mg/kg [2] of 31% and an inhibition in vivo at 64 mg/kg [2] of 39%. The inhibition in vivo at 128 mg/kg [2] was 44%, the “anti-inflammatory activity relative to the ethyl analog” value ([2]; po) was “about half” and the ED30 ([2]; po) was 35.1 mg/kg. For the same molecule, the “reduction of carrageenin-induced edema / anti-edema activity” value ([2]; po) was “significant reductions of carrageenin-induced edema without attendant side effects”.
In the case of c1ccc2c(c1)nc(C1CCC1)c1nccn12, the “Side-Effects Noted” value ([1]; po) is reported as “Ptosis at 128 mg/kg”, the inhibition in vivo at 64 mg/kg [2] is reported as 0% and the inhibition in vivo at 128 mg/kg [2] is reported as 64%. It also gave an ED30 ([2]; po) of roughly 100 mg/kg.
For CC(=O)Oc1ccccc1C(=O)O [ASPIRIN, acetylsalicylic acid, reference compound], the “Side-Effects Noted” value ([1]; po) was “NONE”, the inhibition in vivo at 32 mg/kg [2] was 19% and the inhibition in vivo at 64 mg/kg [2] was 32.5%. The inhibition in vivo at 128 mg/kg [2] was 41%, the inhibition in vivo at 256 mg/kg ([2]; 256 mg/kg po) was 62% and the ED30 ([2]; po) was 59.5 mg/kg.
With c1ccc(OCc2nc3ccccc3n3ccnc23)cc1 the “Side-Effects Noted” value ([1]; po) was “NONE”, the inhibition in vivo at 128 mg/kg [2] was 0% and the ED30 ([2]; po) was greater than 128 mg/kg.
With CCCCCCCCc1nc2ccccc2n2ccnc12 [Compound 117] the “Side-Effects Noted” value ([1]; po) was “NONE”, the inhibition in vivo at 128 mg/kg [2] was 0% and the ED30 ([2]; po) was greater than 128 mg/kg.
For CCCCCCCCCCCCCCCCCc1nc2ccccc2n2ccnc12 [Compound 120], the “Side-Effects Noted” value ([1]; po) was “NONE”, the inhibition in vivo at 64 mg/kg [2] was 0% and the inhibition in vivo at 128 mg/kg [2] was 5%. It also gave an ED30 ([2]; po) greater than 128 mg/kg.
For c1ccc2c(c1)ncc1nccn12 [Compound 109, imidazo[1,2-a]quinoxaline], the “Side-Effects Noted: rats died” value [1] was 1/6, the inhibition in vivo at 64 mg/kg [2] was 6% and the inhibition in vivo at 128 mg/kg [2] was 54%. The ED30 ([2]; po) was roughly 100 mg/kg.
For c1ccc(Cc2nc3ccccc3n3ccnc23)cc1, the “Side-Effects Noted” value ([1]; po) was “NONE”, the inhibition in vivo at 64 mg/kg [2] was 0% and the inhibition in vivo at 128 mg/kg [2] was 0%. For the same molecule, the ED30 ([2]; po) was greater than 128 mg/kg.
With CCCCCCCc1nc2ccccc2n2ccnc12 [Compound 116] the “Side-Effects Noted” value ([1]; po) was “NONE”, the inhibition in vivo at 128 mg/kg [2] was 0% and the ED30 ([2]; po) was greater than 128 mg/kg.
Molecule CCCc1nc2ccccc2n2ccnc12 [Compound 112] has an inhibition in vivo at 64 mg/kg [2] of 0%, an inhibition in vivo at 128 mg/kg [2] of 36% and an ED30 ([2]; po) of roughly 128 mg/kg.
Molecule CCc1nc2ccccc2n2ccnc12 [Compound 111] has a selectivity ratio ([1]; in vivo, po, read-out: dose associated with side effects, as multiple of ED30) of roughly 3, an inhibition in vivo at 4 mg/kg ([2]; 4 mg/kg po) of 6% and an inhibition in vivo at 8 mg/kg [2] of 23%. The inhibition in vivo at 16 mg/kg [2] was 32%, the inhibition in vivo at 32 mg/kg [2] was 40% and the inhibition in vivo at 64 mg/kg [2] was 41%. The inhibition in vivo at 128 mg/kg [2] was 57%, the “anti-edemic activity relative to acetylsalicylic acid” value ([2]; po) was “approximately 3 X acetylsalicylic acid” and the ED30 ([2]; po) was 20.5 mg/kg. The “reduction of carrageenin-induced edema / anti-edema activity” value ([2]; po, listed as CH2 CH3) was “significant reductions of carrageenin-induced edema without attendant side effects” and the “reduction of carrageenin-induced edema / anti-edema activity” value ([2]; po, listed as ethyl analog) was “strongest anti-edemic activity”.
